Assay results reported in patent publication US20250333745A1, “METHODS AND COMPOSITIONS FOR TREATMENT OF POLYCYSTIC KIDNEY DISEASE” (Regulus Therapeutics Inc., priority 2016, published 2025).

Columns and labels:
Pcy mice = assay: Efficacy in the Pcy model of PKD; format: in vivo, mouse; details: for BUN (mean) / Cystic Index (mean) / KW/BW Ratio (mean): 25 mg/kg s.c. for oligonucleotides, sacrificed at 15 weeks of age
Description: (§1) Two experimental models of PKD were used to evaluate efficacy. Pkd2-KO mice spontaneously develop polycystic kidney disease, and were used as a model of ADPKD. See Patel et al., PNAS, 2013; 110 (26): 10765-10770. Pcy mice bearing a mutation in Nphp3 spontaneously develop polycystic kidney disease, with a slower progression of disease than that observed in the Pkd2-KO mice. The Pcy model is used as a model of nephronophthisis. See Happe and Peters, Nat. Rev. Nephrol., 2014; 10:587-601.
(§2) Cyst index is a histological measurement of cystic area relative to total kidney area. For this analysis, one kidney was perfused with cold PBS and 4% (wt/vol) paraformaldehyde and then harvested. Kidneys were fixed with 4% paraformaldehyde for 2 hours and then, embedded in paraffin for sectioning. Sagittal sections of kidneys were stained with hematoxylin and eosin (H&E). All image processing steps were automated and took place in freely available and open source software: An R1 script which used functions from the EBImage Bioconductor package2 and the ImageMagick3 suite of image processing tools. Kidney H&E images in Aperio SVS format were converted to TIFF images, and the first frame was retained for image analysis. First, the total kidney section area was calculated using image segmentation. Image segmentation was similarly used to find all internal structures including kidney cyst. A filter was applied to remove all objects less than a mean radius of three pixels. The cystic index is the image area associated with cysts divided by the total kidney areas. Cystic index was separately calculated for longitudinal and transverse kidney sections for each individual animal. Combined cystic index of individual animals were compared for each treatment groups.
RG4326 was tested in the Pcy mouse model. Wild-type mice were used as control group. From four weeks of age, Pcy mice were treated once per week via subcutaneous injection with RG4326 at a dose of 25 mg/kg, tool anti-miR-17 at a dose of 25 mg/kg, control oligonucleotide RG5124 at a dose of 25 mg/kg, or PBS. Each treatment group contained 15 male mice. Three treatments were administered on […] days of age, and weekly thereafter at 6, 7, 8, 9, 10, 11, 12, 13, and 14 weeks of age. Also tested was tolvaptan, a vasopressin V2-receptor antagonist (VRA) that is prescribed to some patients with polycystic kidney disease. Mice were sacrificed at 15 weeks of age. Body weight was recorded. One kidney was extracted and weighed and the other processed for histological analysis to calculate cyst index as described for the study in the Pkhd1/cre; Pkd2^F/F. Blood urea nitrogen (BUN) level and serum creatinine level were measured. Statistical significance was calculated by one-way ANOVA with Dunnett's multiple correction.

Pkd2-KO mice = assay: Efficacy in the Pkd2-KO model of PKD; format: in vivo, mouse; details: for BUN (mean) / Cystic Index (mean) / KW/BW Ratio (mean) / Serum Creatinine (mean): 20 mg/kg s.c. on days 10, 11, 12, 19 of age, sacrificed at 28 days
Description: as §1
RG4326 was tested in the Pkd2-KO mouse model of ADPKD. This model is also referred to as the PKD2-KO model. Wild-type mice were used as control mice. An oligonucleotide complementary to a miRNA unrelated to miR-17 was used as a treatment control for specificity (RG5124).
On each of days 10, 11 12, and 19 of age, sex-matched littermates of mice were administered a subcutaneous injection of RG4326 at a dose of 20 mg/kg (n=12), RG5124 at a dose of 20 mg/kg (n=12), tool anti-miR-17 at a dose of 20 mg/kg (n=12), or PBS (n=12). Mice were sacrificed at 28 days of age, and kidney weight, body weight, cyst index, serum creatinine level, and blood urea nitrogen (BUN) level were measured. BUN level is a marker of kidney function. A higher BUN level correlates with poorer kidney function, thus a reduction in BUN level is an indicator of reduced kidney injury and damage and improved function. Statistical significance was calculated by one-way ANOVA with Dunnett's multiple correction.
as §2

[1] = 20 mg/kg, not statistically significant

Row | Compound | efficacy on KW/BW ratio, BUN or cyst index (in words) (Pcy mice) | effect on KW/BW ratio, BUN and cyst index (in words) (Pkd2-KO mice; 20 mg/kg) | BUN (mean) (Pcy mice) | Cystic Index (mean) (Pcy mice) | KW/BW Ratio (mean) (Pcy mice) | mean KW/BW ratio lower relative to PBS-treated mice (Pcy mice; 25 mg/kg, p=0.0055) [%] | BUN reduced relative to PBS-treated mice (Pcy mice; 25 mg/kg, p=0.0070) [%] | cyst index reduced compared to PBS (Pcy mice; 25 mg/kg, p=0.016) [%] | BUN (mean) (Pkd2-KO mice) [mg/dL] | Cystic Index (mean) (Pkd2-KO mice) | KW/BW Ratio (mean) (Pkd2-KO mice) [mg/g] | Serum Creatinine (mean) (Pkd2-KO mice) [mg/dL] | Mean serum creatinine levels lower than in PBS mice (Pkd2-KO mice; [1]) [%] | mean reduction in cyst index compared to PBS (Pkd2-KO mice; [1]) [%] | mean KW/BW ratio lower than in PBS mice (Pkd2-KO mice; 20 mg/kg, p=0.0099) [%]
1 | 5′-CTGCACTGTAAGCACTTTG-3′ (all phosphorothioate, sugars by position and methylation of C not given here; DNA, 2'-MOE and S-cEt sugars) [Tool anti-miR-17, reference compound] | did not result in statistically significant reductions | no statistically significant changes were observed | – | – | – | – | – | – | – | – | – | – | – | – | –
2 | COC1C(OP(=O)(S)OC[C@H]2O[C@@H](n3cnc4c(N)ncnc43)C(F)C2OP(=O)(S)OC[C@H]2O[C@@H](n3ccc(N)nc3=O)C(F)C2OP(=O)(S)OC[C@H]2O[C@@H](n3ccc(=O)[nH]c3=O)C(F)C2OP(=O)(S)OC[C@H]2O[C@@H](n3ccc(=O)[nH]c3=O)C(OC)C2OP(=O)(S)OC[C@]23O[C@@H](n4ccc(=O)[nH]c4=O)C(O[C@H]2C)C3OP(=O)(S)OC[C@]23O[C@@H](n4cnc5c(=O)[nH]c(N)nc54)C(O[C@H]2C)C3O)[C@@H](COP(=O)(S)OC2C3O[C@@H](C)[C@]2(COP(=O)(S)OC2C4O[C@@H](C)[C@]2(CO)O[C@H]4n2cnc4c(N)ncnc42)O[C@H]3n2cnc3c(=O)[nH]c(N)nc32)O[C@H]1n1ccc(N)nc1=O (stereo in doubt) [RG4326, ASGSCMAFCFUFUMUSGS] | – | – | 19.7 | 0.16 | 18.1 | 19 | 16 | 34 | 72.92 | 50.3 | 40.98 | 0.26 | 18 | 12 | 29
3 | ASCSAMAFUFGFCMASCS [RG5124, reference compound] | did not result in statistically significant reductions | did not reduce kidney weight to body weight ratio, cyst index, or BUN | 21.2 | 0.23 | 21.4 | – | – | – | 86.67 | 56.67 | 55.35 | 0.31 | – | – | –
